# In patent US5066676A, “Sulfonamido derivative inhibiting the aldose reductase enzyme system and pharmaceutical compositions containing them” (Laboratori Baldacci SpA, priority 1987, dated 1991):
# Experiments:
# [1] = molecular target: T1, aldose reductase (Bos taurus, UniProt P16116); assay: In vitro inhibition of aldose reductase activity of raw extracts from bovine crystalline lens; assay type: biochemical; conditions: glyceraldehyde substrate, NADPH, pH 6.8, 37° C.; read-out: IC50 on the aldose reductase activity of raw extracts originating from bovine crystalline lens
# T1 construct: 4 bovine crystalline lenses (8 g) are homogenized by means of Potter in ice bath; from tissue; host or cells: bovine crystalline lens
# Experimental: "In vitro" tests have been carried out to evalute the inhibition of the aldose reductase activity, prepared from the extract of bovine crystalline lenses.
# PREPARATION OF THE RAW EXTRACTS
# 4 bovine crystalline lenses (8 g) are homogenized by means of Potter in ice bath with 40 ml of 50 mM phosphate buffer, pH 6.8, containing 2-mercaptoethanol pH ([…]). After centrifugation (12.000×g -20 min-4° C.) the supernatant is brought to 40% saturation with an ammonium sulphate and centrifugated again (14.000×g). The supernatant is then brought to the 80% saturation ((NH4)2 SO4) and, after centrifugation for 20 minutes and at 14.000×g, the sedimented matter is recovered and suspended in 7 ml of phosphate buffer. The enzymatic preparation is dialyzed by ultrafiltration with AMICON ultrafiltration cell.
# DOSAGE OF THE ENZYMATIC ACTIVITY
# The reference cuvette contains all the several substances apart from the substrate.
# [2] = test system: diabetic cataract in the rat; assay: Action on the appearance of the diabetic cataract (rat); assay type: in vivo; conditions: for appearance of the diabetic cataract: Table 5, 25 mg/kg/die per os
# Experimental: (§1) With the compound bearing the abbreviation ARI 6 the following tests have been carried out in the rat and in the rabbit.
# Action on the appearance of the diabetic cataract (rat).
# Effects of the administration of ARI 6 (25 mg/kg/die, per os)
# on the appearance of the diabetic cataract in the rat.
# The values are expressed as percentages. Within brackets there are indicated the animals for each group.
# Effects of the administration of ARI-1 (25 mg/kg/die, per os)
# [3] = test system: rat; assay: Toxicity per oral administration repeated in the rat (30 days); assay type: in vivo; conditions: 30 days, 100, 200, 300 mg/kg/die
# From the text: Toxicity per oral administration repeated in the rat (30 days)--Test protocol:
# Compound Doses mg/kg/die
# [4] = Acute toxicity of ARI 6 in the mouse; conditions: in vivo
# [5] = Acute toxicity of ARI 6 in the rat; conditions: in vivo
# [6] = test system: galactosemic cataract in the rat; assay: Action on the appearance of the galactosemic cataract (rat); assay type: in vivo; parameters: appearance of the galactosemic cataract: unit not given here
# Experimental: as §1
# Action on the appearance of the galactosemic cataract (rat)
# Effects of the administration of ARI-6 (5 and 25 mg/kg/die, os)
# on the appearance of the galactosemic cataract in the rat.
# […] In the brackets the number of animals for each group is indicated.
# The diet contains D-galactose 50%.
# Effects of the administration of ARI-1 (5 and 25 mg/kg/die, os)
compound,measurement,setting,value
"CN(CC(=O)O)S(=O)(=O)c1ccc2oc3ccc(Cl)cc3c(=O)c2c1 [ARI 6, 7-chloro-2 (N-methyl-N-carboxymethyl) sulfamoylxanthone]",IC50,[1],9.2 µM
same,appearance of the diabetic cataract,[2]; day 5 from streptozotocine,0.0%
same,appearance of the diabetic cataract,[2]; day 10 from streptozotocine,0.0%
same,appearance of the diabetic cataract,[2]; day 15 from streptozotocine,0.0%
same,appearance of the diabetic cataract,[2]; day 20 from streptozotocine,0.0%
same,appearance of the diabetic cataract,[2]; day 25 from streptozotocine,0.0%
same,appearance of the diabetic cataract,[2]; day 30 from streptozotocine,0.0%
same,appearance of the diabetic cataract,[2]; day 35 from streptozotocine,0.0%
same,appearance of the diabetic cataract,[2]; day 40 from streptozotocine,20.0%
same,appearance of the diabetic cataract,[2]; day 45 from streptozotocine,30.0%
same,appearance of the diabetic cataract,[2]; day 50 from streptozotocine,100.0%
same,delay of the appearance of the diabetic cataract,"[2]; rat, 25 mg/kg, vs controls",about 30 days
same,Microscope and hystomorphological examination,[3],no alteration
same,death,[3],No death
same,Behaviour and general status,[3]; vs control group,no variation with respect to the control group
same,Biochemical and hematological parameters,[3]; vs controls,no significant variation with respect to the controls
same,LD50,"[4]; ip, read-out: Acute toxicity in the mouse ip",1000 mg/kg
same,LD50,"[4]; po, per os, read-out: Acute toxicity in the mouse per os",1000 mg/kg
same,LD50,"[5]; ip, read-out: Acute toxicity in the rat ip",1000 mg/kg
same,LD50,"[5]; po, per os, read-out: Acute toxicity in the rat per os",1000 mg/kg
same,appearance of the galactosemic cataract,"[6]; Table 4, 5 mg/kg/die os, day 5 of diet",0.0
same,appearance of the galactosemic cataract,"[6]; Table 4, 5 mg/kg/die os, day 10 of diet",0.0
same,appearance of the galactosemic cataract,"[6]; Table 4, 5 mg/kg/die os, day 15 of diet",0.0
same,appearance of the galactosemic cataract,"[6]; Table 4, 5 mg/kg/die os, day 20 of diet",0.0
same,appearance of the galactosemic cataract,"[6]; Table 4, 5 mg/kg/die os, day 25 of diet",15.0
same,appearance of the galactosemic cataract,"[6]; Table 4, 5 mg/kg/die os, day 30 of diet",20.0
same,appearance of the galactosemic cataract,"[6]; Table 4, 5 mg/kg/die os, day 35 of diet",40.0
same,appearance of the galactosemic cataract,"[6]; Table 4, 5 mg/kg/die os, day 40 of diet",100.0
same,appearance of the galactosemic cataract,"[6]; Table 4, 5 mg/kg/die os, day 45 of diet",100.0
same,appearance of the galactosemic cataract,"[6]; Table 4, 5 mg/kg/die os, day 50 of diet",100.0
same,appearance of the galactosemic cataract,"[6]; Table 4, 25 mg/kg/die os, day 5 of diet",0.0
same,appearance of the galactosemic cataract,"[6]; Table 4, 25 mg/kg/die os, day 10 of diet",0.0
same,appearance of the galactosemic cataract,"[6]; Table 4, 25 mg/kg/die os, day 15 of diet",0.0
same,appearance of the galactosemic cataract,"[6]; Table 4, 25 mg/kg/die os, day 20 of diet",0.0
same,appearance of the galactosemic cataract,"[6]; Table 4, 25 mg/kg/die os, day 25 of diet",0.0
same,appearance of the galactosemic cataract,"[6]; Table 4, 25 mg/kg/die os, day 30 of diet",0.0
same,appearance of the galactosemic cataract,"[6]; Table 4, 25 mg/kg/die os, day 35 of diet",0.0
same,appearance of the galactosemic cataract,"[6]; Table 4, 25 mg/kg/die os, day 40 of diet",15.0
same,appearance of the galactosemic cataract,"[6]; Table 4, 25 mg/kg/die os, day 45 of diet",25.0
same,appearance of the galactosemic cataract,"[6]; Table 4, 25 mg/kg/die os, day 50 of diet",100.0
same,delay for the appearance of the galactosemic cataract,"[6]; rat, 5 mg/kg, vs controls",about 20 days
same,effect on appearance of the galactosemic cataract (in words),"[6]; rat, higher doses",A more intense effect
